Results on 21 compounds are retold here after patent publication US20160159814A1, “GLYCINE TRANSPORTER INHIBITOR” (TAISHO PHARMACEUTICAL CO., LTD., priority 2013, published 2016).

The target in the first test is T1, human type 1 glycine transporter (GlyT1) (Homo sapiens, UniProt P48067).
T1 construct: T98G cells (glioma cells) expressing human type 1 glycine transporter (GlyT1) were used; endogenous in cells; host or cells: T98G cells (human glioma cells)
T1 sequence (P48067 1-706): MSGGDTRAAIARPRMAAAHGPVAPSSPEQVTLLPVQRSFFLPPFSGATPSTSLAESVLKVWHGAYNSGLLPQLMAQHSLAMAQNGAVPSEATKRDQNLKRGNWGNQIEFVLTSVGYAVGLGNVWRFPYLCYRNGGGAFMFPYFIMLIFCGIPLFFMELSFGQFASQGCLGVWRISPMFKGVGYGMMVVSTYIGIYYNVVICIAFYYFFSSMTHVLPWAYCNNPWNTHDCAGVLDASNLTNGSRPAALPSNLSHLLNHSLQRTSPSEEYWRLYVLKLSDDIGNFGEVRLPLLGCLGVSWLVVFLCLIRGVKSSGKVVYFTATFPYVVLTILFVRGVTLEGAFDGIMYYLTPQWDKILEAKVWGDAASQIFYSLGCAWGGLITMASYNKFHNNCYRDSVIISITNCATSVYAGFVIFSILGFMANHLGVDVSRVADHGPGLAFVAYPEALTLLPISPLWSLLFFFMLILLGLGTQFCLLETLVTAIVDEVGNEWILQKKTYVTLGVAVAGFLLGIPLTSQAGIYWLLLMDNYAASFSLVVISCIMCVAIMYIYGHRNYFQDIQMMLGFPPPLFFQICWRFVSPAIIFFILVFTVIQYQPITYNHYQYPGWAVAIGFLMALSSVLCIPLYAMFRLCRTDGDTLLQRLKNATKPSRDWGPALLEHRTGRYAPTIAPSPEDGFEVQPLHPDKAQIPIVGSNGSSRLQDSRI
The test can be described thus: Glycine uptake inhibition experiment ([3H] glycine uptake in T98G cells expressing GlyT1).
Conditions: not given
It counts as cell-based. A digest of the protocol: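 T98G glioma cells expressing human GlyT1 were pretreated 10 min with compound in HEPES buffer pH 7.4 (0.2% BSA), then incubated with compound plus 250 nM final [3H]glycine for 15 min at room temperature. Intracellular radioactivity was counted after NaOH lysis; 10 μM ALX5407 defined non-specific uptake. IC50 came from 10^−9–10^−5 M curves.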
Take `O=C1N(Cc2cncc(Cl)c2)c2c(F)ccc(C(O)C(F)F)c2C1(F)F` (single isomer, unassigned) [Compound 254, 1-[(5-chloropyridin-3-yl)methyl]-4-(2,2-difluoro-1-hydroxyethyl)-3,3,7-trifluoro-1,3-dihydro-2H-indol-2-one]: the IC50 amounted to 6800 nM.

Consider `COc1nc(CN2C(=O)C(F)(F)c3c([C@H](C)O)cccc32)ccc1F` [Compound 246, 3,3-difluoro-1-[(5-fluoro-6-methoxypyridin-2-yl)methyl]-4-[(1S)-1-hydroxyethyl]-1,3-dihydro-2H-indol-2-one], for which the IC50 was 55 nM.

In the case of `C[C@H](O)c1cccc2c1C(F)(F)C(=O)N2Cc1cnc(Cl)c(C#N)c1` [Compound 251, 2-chloro-5-({3,3-difluoro-4-[(1S)-1-hydroxyethyl]-2-oxo-2,3-dihydro-1H-indol-1-yl)methyl)pyridine-3-carbonitrile], the IC50 amounted to 20 nM.

As for `COc1ncc(CN2C(=O)C(F)(F)c3c([C@H](C)O)cccc32)cc1Cl` [Compound 222, 1-[(5-chloro-6-methoxypyridin-3-yl)methyl]-3,3-difluoro-4-[(1S)-1-hydroxyethyl)-1,3-dihydro-2H-indol-2-one], inhibition was half-maximal at 8.6 nM (IC50).

Compound `COc1ccc(CN2C(=O)C(F)(F)c3c([C@H](C)O)cccc32)nc1C#N` [Compound 217, 6-({3,3-difluoro-4-[(1S)-1-hydroxyethyl]-2-oxo-2,3-dihydro-1H-indol-1-yl}methyl)-3-methoxypyridine-2-carbonitrile] had an IC50 of 120 nM.

`C[C@H](O)c1ccc(F)c2c1C(F)(F)C(=O)N2Cc1ccnc(C#N)c1` [Compound 277, 4-({3,3,7-trifluoro-4-[(1S)-1-hydroxyethyl]-2-oxo-2,3-dihydro-1H-indol-1-yl}methyl)pyridine-2-carbonitrile] returned an IC50 of 14 nM.

`C[C@H](O)c1cccc2c1C(F)(F)C(=O)N2Cc1ccnc(C#N)c1Cl` [Compound 192]: the IC50 was determined as 67 nM.

Staying with this test, now noted: glycine uptake inhibition.
In the case of `C[C@H](O)c1cccc2c1C(F)(F)C(=O)N2Cc1ccnc(C#N)c1` [Compound 40, 4-({3,3-difluoro-4-[(1S)-1-hydroxyethyl]-2-oxo-2,3-dihydro-1H-indol-1-yl}methyl)pyridine-2-carbonitrile], the concentration for half-maximal inhibition (IC50) came to 38 nM.

On to `O=C1N(Cc2cncc(-n3nccn3)c2)c2cccc(C(O)C(F)F)c2C1(F)F` (single isomer, unassigned) [Compound 148, 4-(2,2-difluoro-1-hydroxyethyl)-3,3-difluoro-1-{[5-(2H-1,2,3-triazol-2-yl)pyridin-3-yl]methyl}-1,3-dihydro-2H-indol-2-one], for which the IC50 was 39 nM.

As to `C[C@H](O)c1cccc2c1C(F)(F)C(=O)N2Cc1ccnc(F)c1` [Compound 42, 3,3-difluoro-1-[(2-fluoropyridin-4-yl)methyl]-4-[(1S)-1-hydroxyethyl]-1,3-dihydro-2H-indol-2-one], inhibition was half-maximal at 50 nM (IC50).

On to `O=C1N(Cc2cccc(C(F)F)n2)c2cccc(C(O)C(F)F)c2C1(F)F` (single isomer, unassigned) [Compound 153, 4-(2,2-difluoro-1-hydroxyethyl)-1-{[6-(difluoromethyl)pyridin-2-yl]methyl}-3,3-difluoro-1,3-dihydro-2H-indol-2-one], for which the IC50 was found to be 130 nM.

As to `Cn1c(=O)c(CN2C(=O)C(F)(F)c3c([C@@H](O)C(F)(F)F)cccc32)nc2ccccc21` [Compound 141, 3-({3,3-difluoro-2-oxo-4-[(1R)-2,2,2-trifluoro-1-hydroxyethyl]-2,3-dihydro-1H-indol-1-yl}methyl)-1-methylquinoxalin-2(1H)-one], the midpoint of inhibition, the IC50, lay at 100 nM.

Compound `C[C@H](O)c1cccc2c1C(F)(F)C(=O)N2Cc1cc(Br)ccn1` [Compound 123, 1-[(4-bromopyridin-2-yl)methyl]-3,3-difluoro-4-[(1S)-1-hydroxyethyl]-1,3-dihydro-2H-indol-2-one] displayed an IC50 of 22 nM.

On to `C[C@H](O)c1cccc2c1C(F)(F)C(=O)N2Cc1cccc(C(F)(F)F)c1` [Compound 58, 3,3-difluoro-4-[(1S)-1-hydroxyethyl]-1-[3-(trifluoromethyl)benzyl]-1,3-dihydro-2H-indol-2-one], for which inhibition was half-maximal at 6.6 nM (IC50).

`CC(O)c1cccc2c1C(F)(F)C(=O)N2Cc1ccnc(Cl)c1` (single isomer, unassigned) [Compound 34, 1-[(2-chloropyridin-4-yl)methyl]-3,3-difluoro-4-(1-hydroxyethyl)-1,3-dihydro-2H-indol-2-one]: the midpoint of inhibition, the IC50, lay at 4600 nM.

In turn, `C[C@H](O)c1cccc2c1C(F)(F)C(=O)N2Cc1cc(F)ccn1` [Compound 97, 3,3-difluoro-1-[(4-fluoropyridin-2-yl)methyl]-4-[(1S)-1-hydroxyethyl]-1,3-dihydro-2H-indol-2-one] had an IC50 of 91 nM.

Consider `C[C@H](O)c1cccc2c1C(F)(F)C(=O)N2Cc1n[nH]c2ccccc12` [Compound 89, 3,3-difluoro-4-[(1S)-1-hydroxyethyl]-1-(1H-indazol-3-ylmethyl)-1,3-dihydro-2H-indol-2-one], for which the IC50 was 190 nM.

Compound `O=C1N(Cc2ccnc(-n3nccn3)c2)c2cccc(C(O)C(F)F)c2C1(F)F` (single isomer, unassigned) [Compound 147, 4-(2,2-difluoro-1-hydroxyethyl)-3,3-difluoro-1-{[2-(2H-1,2,3-triazol-2-yl)pyridin-4-yl]methyl}-1,3-dihydro-2H-indol-2-one] had an IC50 of 360 nM.

For the compound `C[C@H](O)c1cccc2c1C(F)(F)C(=O)N2Cc1cnc2ccccc2n1` [Compound 83, 3,3-difluoro-4-[(1S)-1-hydroxyethyl]-1-(quinoxalin-2-ylmethyl)1,3-dihydro-2H-indol-2-one], the IC50 was 30 nM.

Staying with this test, now noted: table section whose head prints (μm).
Compound `COc1nc(CN2C(=O)C(F)(F)c3c(C(O)C(F)F)cccc32)ccc1F` (single isomer, unassigned) [Compound 265, 4-(2,2-difluoro-1-hydroxyethyl)-3,3-difluoro-1-[(5-fluoro-6-methoxypyridin-2-yl)methyl]-1,3-dihydro-2H-indol-2-one] registered an IC50 of 930 nM.

Turning to `O=C1N(Cc2cncc(OC(F)F)c2)c2cccc(C(O)C(F)F)c2C1(F)F` (single isomer, unassigned) [Compound 258, 4-(2,2-difluoro-1-hydroxyethyl)-1-{[5-(difluoromethoxy)pyridin-3-yl]methyl}-3,3-difluoro-1,3-dihydro-2H-indol-2-one], 120 nM corresponded to half-maximal inhibition (IC50).

As a reminder, the IC50 is the concentration at which inhibition is half-maximal. A high value points to weaker potency in that assay.
